Measurements reported in ChEMBL document CHEMBL1201862, “PubChem BioAssay data set” (2004).
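1) Cells in 96-well plates. 2) Compound, 48 h, 5 concentrations. 3) Linear interpolation between surrounding doses. 4) Unreached endpoint = highest concentration. Here, GI50 denotes the concentration required for 50% inhibition of growth.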 Activity calls are given as the source filed them. Cut-off read from the data, not from the text of the source: active = GI50 up to about 1.1 µM and inactive = higher.

How the values were obtained:
Assay in all cases: inhibition of tumour cell growth, NCI panel, 48 h
[1] = system: 786-0
[2] = system: A498
[3] = system: A549
[4] = system: ACHN
[5] = system: BT-549
[6] = system: CAKI-1
[7] = system: CCRF-CEM
[8] = system: COLO 205
[9] = system: DU-145
[10] = system: EKVX
[11] = system: HCC 2998
[12] = system: HCT-116
[13] = system: HCT-15
[14] = system: HOP-62
[15] = system: HOP-92
[16] = system: HT-29
[17] = system: IGROV-1
[18] = system: K562
[19] = system: KM12
[20] = system: LOX IMVI
[21] = system: M14
[22] = system: MCF7
[23] = system: MDA-MB-231
[24] = system: MDA-MB-435
[25] = system: MDA-N
[26] = system: MOLT-4
[27] = system: Malme-3M
[28] = system: NCI-H226
[29] = system: NCI-H23
[30] = system: NCI-H522
[31] = system: NCI/ADR-RES
[32] = system: OVCAR-3
[33] = system: OVCAR-5
[34] = system: OVCAR-8
[35] = system: PC-3
[36] = system: RPMI-8226
[37] = system: SF-268
[38] = system: SF-295
[39] = system: SF-539
[40] = system: SK-MEL-2
[41] = system: SK-MEL-5
[42] = system: SK-OV-3
[43] = system: SN12C
[44] = system: SNB-19
[45] = system: SR
[46] = system: SW-620
[47] = system: T47D
[48] = system: TK-10
[49] = system: U-251
[50] = system: UACC-257
[51] = system: UACC-62
[52] = system: UO-31
[53] = system: HL-60
[54] = system: NCI-H460
[55] = system: RXF 393
[56] = system: Hs-578T
[57] = system: OVCAR-4
[58] = system: SK-MEL-28
[59] = system: SNB-75

O=C(CN1CCOCC1)Nc1ccc2c(c1)C1Oc3ccccc3CC1CO2 (stereo not given)
GI50 [1]: > 100 µM (inactive)
GI50 [2]: > 100 µM (inactive)
GI50 [3]: > 100 µM (inactive)
GI50 [4]: > 100 µM (inactive)
GI50 [5]: 38.1 µM (inactive)
GI50 [6]: > 100 µM (inactive)
GI50 [7]: > 100 µM (inactive)
GI50 [8]: > 100 µM (inactive)
GI50 [9]: > 100 µM (inactive)
GI50 [10]: > 100 µM (inactive)
GI50 [11]: > 100 µM (inactive)
GI50 [12]: > 100 µM (inactive)
GI50 [13]: > 100 µM
GI50 [14]: > 100 µM (inactive)
GI50 [15]: > 100 µM (inactive)
GI50 [16]: > 100 µM (inactive)
GI50 [17]: > 100 µM (inactive)
GI50 [18]: > 100 µM (inactive)
GI50 [19]: > 100 µM (inactive)
GI50 [20]: > 100 µM (inactive)
GI50 [21]: > 100 µM (inactive)
GI50 [22]: > 100 µM (inactive)
GI50 [23]: > 100 µM (inactive)
GI50 [24]: > 100 µM (inactive)
GI50 [25]: > 100 µM (inactive)
GI50 [26]: 88.1 µM (inactive)
GI50 [27]: > 100 µM (inactive)
GI50 [28]: > 100 µM (inactive)
GI50 [29]: > 100 µM (inactive)
GI50 [30]: > 100 µM (inactive)
GI50 [31]: > 100 µM (inactive)
GI50 [32]: > 100 µM (inactive)
GI50 [33]: > 100 µM (inactive)
GI50 [34]: > 100 µM (inactive)
GI50 [35]: > 100 µM (inactive)
GI50 [36]: > 100 µM (inactive)
GI50 [37]: > 100 µM (inactive)
GI50 [38]: > 100 µM (inactive)
GI50 [39]: > 100 µM (inactive)
GI50 [40]: > 100 µM (inactive)
GI50 [41]: 58.9 µM (inactive)
GI50 [42]: > 100 µM (inactive)
GI50 [43]: > 100 µM (inactive)
GI50 [44]: > 100 µM (inactive)
GI50 [45]: > 100 µM (inactive)
GI50 [46]: > 100 µM (inactive)
GI50 [47]: > 100 µM (inactive)
GI50 [48]: > 100 µM (inactive)
GI50 [49]: > 100 µM (inactive)
GI50 [50]: > 100 µM (inactive)
GI50 [51]: > 100 µM (inactive)
GI50 [52]: > 100 µM (inactive)

Oc1ccc(-c2nc3ccc(Cl)cc3s2)cc1
GI50 [2]: 20 µM (inactive)
GI50 [3]: 20.8 µM (inactive)
GI50 [4]: 76.7 µM (inactive)
GI50 [5]: 18.7 µM (inactive)
GI50 [6]: 20.2 µM (inactive)
GI50 [7]: 5.35 µM (inactive)
GI50 [8]: 17.7 µM (inactive)
GI50 [9]: 17.3 µM (inactive)
GI50 [10]: 16.2 µM (inactive)
GI50 [12]: 16 µM (inactive)
GI50 [13]: 15.7 µM
GI50 [53]: 13.8 µM (inactive)
GI50 [16]: 18.4 µM (inactive)
GI50 [17]: 16.5 µM (inactive)
GI50 [18]: 28.2 µM (inactive)
GI50 [19]: 16.3 µM (inactive)
GI50 [20]: 21.4 µM (inactive)
GI50 [21]: > 100 µM (inactive)
GI50 [22]: 7.41 µM (inactive)
GI50 [23]: 22.6 µM (inactive)
GI50 [24]: 18.5 µM (inactive)
GI50 [25]: 18.8 µM (inactive)
GI50 [26]: 26.7 µM (inactive)
GI50 [27]: 19.3 µM (inactive)
GI50 [28]: 20 µM (inactive)
GI50 [29]: 18.3 µM (inactive)
GI50 [54]: 18.8 µM (inactive)
GI50 [30]: 16.3 µM (inactive)
GI50 [31]: 23.4 µM (inactive)
GI50 [32]: 23.5 µM (inactive)
GI50 [33]: 17.9 µM (inactive)
GI50 [34]: 19.3 µM (inactive)
GI50 [35]: 20.4 µM (inactive)
GI50 [36]: 20.1 µM (inactive)
GI50 [55]: 19.8 µM (inactive)
GI50 [37]: 17.2 µM (inactive)
GI50 [38]: 19.3 µM (inactive)
GI50 [39]: 16.2 µM (inactive)
GI50 [40]: 18.4 µM (inactive)
GI50 [41]: 18.2 µM (inactive)
GI50 [42]: 20.2 µM (inactive)
GI50 [43]: 19.4 µM (inactive)
GI50 [44]: 20.2 µM (inactive)
GI50 [45]: 23.7 µM (inactive)
GI50 [46]: 21.1 µM (inactive)
GI50 [48]: 20.4 µM (inactive)
GI50 [49]: 19.7 µM (inactive)
GI50 [50]: 19.6 µM (inactive)
GI50 [51]: 16.9 µM (inactive)
GI50 [52]: 14.2 µM (inactive)

COC(=O)c1cc2c(cc1O)[C@@H](NC(C)=O)CCc1cc(OC)c(OC)c(OC)c1-2
GI50 [1]: 0.0328 µM (active)
GI50 [2]: 0.0568 µM (active)
GI50 [3]: 0.0605 µM (active)
GI50 [4]: 0.111 µM (active)
GI50 [6]: 0.0993 µM (active)
GI50 [7]: 0.0492 µM (active)
GI50 [8]: 0.029 µM (active)
GI50 [9]: 0.064 µM (active)
GI50 [10]: 0.0415 µM (active)
GI50 [11]: 0.0578 µM (active)
GI50 [12]: 0.0274 µM (active)
GI50 [13]: 0.0461 µM
GI50 [14]: 0.0946 µM (active)
GI50 [15]: 0.0647 µM (active)
GI50 [16]: 0.044 µM (active)
GI50 [56]: 0.017 µM (active)
GI50 [17]: 0.0627 µM (active)
GI50 [18]: 0.0412 µM (active)
GI50 [19]: 0.0283 µM (active)
GI50 [20]: 0.0501 µM (active)
GI50 [21]: 0.0454 µM (active)
GI50 [22]: < 0.01 µM (active)
GI50 [23]: 0.0923 µM (active)
GI50 [24]: 0.0262 µM (active)
GI50 [25]: 0.0277 µM (active)
GI50 [26]: 0.0796 µM (active)
GI50 [27]: 0.0243 µM (active)
GI50 [28]: 0.023 µM (active)
GI50 [29]: 0.0296 µM (active)
GI50 [54]: 0.0528 µM (active)
GI50 [30]: 0.0222 µM (active)
GI50 [31]: 0.114 µM (active)
GI50 [32]: 0.0518 µM (active)
GI50 [57]: 0.0432 µM (active)
GI50 [33]: > 10 µM (inactive)
GI50 [34]: 0.0577 µM (active)
GI50 [35]: 0.0509 µM (active)
GI50 [36]: 0.0668 µM (active)
GI50 [37]: 0.0792 µM (active)
GI50 [38]: 0.0385 µM (active)
GI50 [39]: 0.0294 µM (active)
GI50 [58]: 0.0731 µM (active)
GI50 [40]: 0.084 µM (active)
GI50 [41]: 0.0235 µM (active)
GI50 [42]: 0.0951 µM (active)
GI50 [43]: 0.127 µM (active)
GI50 [44]: 0.101 µM (active)
GI50 [59]: 0.0299 µM (active)
GI50 [45]: 0.055 µM (active)
GI50 [46]: 0.108 µM (active)
GI50 [47]: > 10 µM (inactive)
GI50 [48]: > 10 µM (inactive)
GI50 [49]: 0.0342 µM (active)
GI50 [50]: 0.0715 µM (active)
GI50 [51]: 0.0692 µM (active)
GI50 [52]: 0.445 µM (active)

Cc1c(F)c(N)c2c(=O)cc(-c3ccc(NC(=O)[C@@H](N)CCCCN)c(F)c3)oc2c1F
GI50 [1]: 9.31 µM (inactive)
GI50 [2]: 0.0537 µM (active)
GI50 [4]: 12.9 µM (inactive)
GI50 [5]: 24.4 µM (inactive)
GI50 [7]: 3.52 µM (inactive)
GI50 [9]: 13.7 µM (inactive)
GI50 [10]: 6.68 µM (inactive)
GI50 [12]: 2.88 µM (inactive)
GI50 [13]: 11.2 µM
GI50 [14]: 7.59 µM (inactive)
GI50 [15]: 18.6 µM (inactive)
GI50 [16]: 13.1 µM (inactive)
GI50 [17]: 0.0418 µM (active)
GI50 [19]: 9.33 µM (inactive)
GI50 [20]: 8.83 µM (inactive)
GI50 [21]: 16.4 µM (inactive)
GI50 [22]: 0.033 µM (active)
GI50 [23]: 13.2 µM (inactive)
GI50 [24]: 7.21 µM (inactive)
GI50 [25]: 7.26 µM (inactive)
GI50 [54]: 0.101 µM (active)
GI50 [31]: 21.4 µM (inactive)
GI50 [34]: 11 µM (inactive)
GI50 [35]: 15.3 µM (inactive)
GI50 [55]: 18.2 µM (inactive)
GI50 [37]: 11.9 µM (inactive)
GI50 [38]: 15.6 µM (inactive)
GI50 [58]: 13.2 µM (inactive)
GI50 [40]: 21.3 µM (inactive)
GI50 [42]: 15.1 µM (inactive)
GI50 [43]: 14.9 µM (inactive)
GI50 [44]: 18.4 µM (inactive)
GI50 [59]: 4.68 µM (inactive)
GI50 [47]: 0.159 µM (active)
GI50 [48]: 0.134 µM (active)
GI50 [50]: 0.242 µM (active)
GI50 [52]: 7.83 µM (inactive)
